# Results: US9249159B2, “Composition for treating hepatitis C virus, regulating phosphorylation of replicase” (Industry-Academic Cooperation Foundation, Yonsei University, priority 2011, dated 2016)
# Tests used:
# PRK2 [1] = target: T1, PRK2 (Homo sapiens, UniProt Q16513); assay: PRK2 phosphorylation (Thr816) and PRK2 level in R-1 cells by Western blot; assay type: cell-based; conditions: R-1 cell, 72 hours
# T1 construct: endogenous in cells; host or cells: R-1 (Huh7-derived HCV replicon cells) and Huh7
# Description: After the R-1 cell line was treated with the PRK2 inhibitor at a final concentration of 10 or 20 μM for 48 hours, phosphorylation or not of Thr^816 residue essential for activity of PRK2 was analyzed by Western blot using a phospho-PRK2 antibody to measure an expression level of phosphorylated PRK2. Immunoblotting using an anti-α-tubulin antibody was carried out to check whether or not the same amount of protein was loaded.
# Then, in order to check whether or not IFN-α affected a PDK1-PRK2 signaling pathway, the R-1 cell was treated with 100 IU/ml of IFN-α hourly for 6 hours. SDS-PAGE was carried out to the cell lysates, and immunoblotting was carried out. The immunoblotting with anti-α-tubulin antibody was used as an internal control for loading. A representative result from one of the three independent experiments showing a similar result was illustrated.
# [2] = tested on: genotype 2a HCV (JFH1)-infected Huh7 cells; assay: HCV RNA level in Huh7 cells infected with HCV (JFH1); assay type: cell-based, hepatitis C virus genotype 2a; conditions: JFH1-infected Huh7 cell, 500 nM, 72 hours
# Description: To do so, after the two cell lines were treated with the compound #17 at higher concentrations (60 and 100 μM) than 20 μM for 48 hours, an HCV RNA genome level was checked by a real-time RT-PCR analysis. A value was a mean±standard deviation (SD) of three independent measurements. HCV RNA titer was quantified by real-time PCR analysis. Three independent experiments were performed in triplicate.
# Full-length, infectious HCV RNA of the genotype 2a HCV clone JFH1 was prepared by in vitro transcription using the MEGAscript T7 kit (Ambion, Austin, Tex., USA) and electroporated into Huh7 cells as described previously. Briefly, at 72 h post electroporation, culture medium was collected, cleared by low-speed centrifugation, and passed through a 0.45-μm filter (Millipore, Billerica, Mass., USA) before being used for infection of Huh7 cells. Cells were infected with HCV at a multiplicity of infection of 0.3 by adsorption for 3 h with periodic rocking, then washed three times with phosphate-buffered saline (PBS) and maintained in complete DMEM. […]
# Total RNA was extracted from R-1 or HCV (JFH1)-infected cells using TRIzol LS reagent (Invitrogen, Carlsbad, Calif., USA) and purified according to the manufacturer's instructions. HCV RNA levels were quantified by RT-PCR using a primer pair and TaqMan probe targeting a region within the HCV 5′-UTR as described previously. […] Assays were performed using the DyNAmo Probe 2-step qRT-PCR Kit (Finnzymes, Espoo, Finland) and a CHROMO4 continuous fluorescence detector (Bio-Rad, Hercules, Calif., USA), according to the manufacturer's instructions.
# In order to analyze whether or not 17-DMAG can inhibit replication in a cell infected with HCV, an experiment was carried out with the genotype 2a HCV infectious clone JFH1, which produces infectious virions in Huh7 or Huh7-derived cell lines. […] After 72 hours, total cellular RNA was extracted and HCV remaining in the infected cell was analyzed by quantitative RT-PCR.
# PDK1 [3] = assay: Steady state level of PDK1 in Huh7 cell by immunoblotting; assay type: cell-based; conditions: increasing concentration, 48 hours
# Description: (§1) Total cell lysates from cells treated with inhibitors or IFN-α by using antibodies to PDK1, p-PDK1 (S241), PRK2, and p-PRK2 (T816) (products of Cell Signaling Technology, Inc., Beverly, Mass., USA) was used for immunoblotting. In order to detect PKC isoforms α, β, and γ, a polyclonal antibody to a consensus sequence present in three PKC (protein kinase C) isoforms α, β and γ (anti-pan-PKC; Zymed Laboratories, San Francisco, Calif., USA) was used. An anti-α-tubulin antibody (Oncogene Research Products, Cambridge, Mass., USA) was carried out in immunoblotting for checking whether or not the same amount of protein was loaded.
# In order to test whether or not PDK1 in Huh7 as an HCC cell line was destabilized by inhibition of Hsp90, 17-DMAG as a second-generation geldanamycin derivative known as being safer than geldanamycin or its derivative 17-AAG and effective for oral delivery was used (FIG. 8A). The Huh7 cell was treated for 48 hours along with an increase in concentration of 17-DMAG, and a steady state level of PDK1 was evaluated by immunoblotting.
# PRK2 [4] = assay: PRK2 level in Huh7 cell by immunoblotting; assay type: cell-based; conditions: 500 nM, 48 hours
# PDK1 [5] = assay: PDK1 level and activation in R-1 cell by immunoblotting; assay type: cell-based; conditions: 10 or 50 nM, 72 hours
# Description: as §1
# Therefore, anti-HCV activity of 17-DMAG in the R-1 cell was tested at a level lower than 50 nM. To do so, the R-1 cell was treated with a vehicle (0.25% DMSO) or 17-DMAG for 72 hours and the cell lysates (50 μg) and antibodies specific to the proteins were immunoblotted to measure levels of the proteins. An anti-α-tubulin antibody (lower end panel) was used as an internal loading control. The levels of the proteins were measured by densitometric analysis of immunoblot, and the phosphorylated amounts and relative intensities calculated with respect to PDK1 and PDK2 were converted with respect to α-tubulin signals and then quantitated. As a result of three independent experiments showing similar results, a representative blot picture was illustrated. […]
# T1 sequence (Q16513 whole entry): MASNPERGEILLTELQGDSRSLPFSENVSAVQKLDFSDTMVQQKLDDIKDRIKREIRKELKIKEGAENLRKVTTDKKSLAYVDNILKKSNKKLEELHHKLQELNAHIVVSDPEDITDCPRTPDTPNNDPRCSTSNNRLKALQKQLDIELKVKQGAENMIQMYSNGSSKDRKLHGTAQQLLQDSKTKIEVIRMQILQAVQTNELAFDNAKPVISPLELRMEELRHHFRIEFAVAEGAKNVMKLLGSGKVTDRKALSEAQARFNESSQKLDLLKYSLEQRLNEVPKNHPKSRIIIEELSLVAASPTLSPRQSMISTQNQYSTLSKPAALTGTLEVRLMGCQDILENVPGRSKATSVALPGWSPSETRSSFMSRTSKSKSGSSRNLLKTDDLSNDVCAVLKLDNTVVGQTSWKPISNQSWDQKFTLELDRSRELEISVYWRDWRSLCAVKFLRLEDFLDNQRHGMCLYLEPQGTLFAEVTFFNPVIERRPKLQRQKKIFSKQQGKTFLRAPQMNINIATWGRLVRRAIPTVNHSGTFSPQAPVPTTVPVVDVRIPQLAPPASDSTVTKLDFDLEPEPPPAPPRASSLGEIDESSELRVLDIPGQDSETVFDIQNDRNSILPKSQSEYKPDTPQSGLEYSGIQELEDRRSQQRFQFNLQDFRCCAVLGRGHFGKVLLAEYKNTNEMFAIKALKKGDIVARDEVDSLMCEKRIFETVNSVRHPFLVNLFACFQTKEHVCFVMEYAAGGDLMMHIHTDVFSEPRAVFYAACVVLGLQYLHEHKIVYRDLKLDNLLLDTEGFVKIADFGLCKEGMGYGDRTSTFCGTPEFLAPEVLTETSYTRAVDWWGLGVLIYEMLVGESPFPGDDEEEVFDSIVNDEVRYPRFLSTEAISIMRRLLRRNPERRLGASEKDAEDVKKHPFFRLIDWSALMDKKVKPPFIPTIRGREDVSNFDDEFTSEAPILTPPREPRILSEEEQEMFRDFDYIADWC
structure (smiles),measurement,setting,value
"CO[C@H]1/C=C\C=C(/C)C(=O)NC2=CC(=O)C(NCCN(C)C)=C(C[C@@H](C)C[C@H](OC)[C@H](O)[C@@H](C)/C=C(\C)[C@@H]1OC(N)=O)C2=O [17-DMAG, 17-(dimethylaminoethylamino)-17-demethoxygeldanamycin]",stability of PRK2,PRK2 [1]; 50 nM,not affected
same,level of p-PRK2,PRK2 [1]; 10 or 50 nM,decreased
same,decrease of level of viral RNA,[2],about 87%
same,PDK1 level,PDK1 [3],gradually and significantly decreased
same,decrease of PRK2 level as compared with non-treated control,PRK2 [4],about 68%
same,level of PDK1,PDK1 [5],decreased
